Entries after “also recorded” stand apart in the source; their conditions may differ. Read-outs that look alike come from different tables or passages of the source. Where no end group is shown, it is not given here.
Key:
T cells = settings: cited from earlier work; for patients recognizing the peptide / immunogenicity / T-cell responses: Saeterdal et al., PNAS 2001; for immunogenicity / T-cell responses: tumour infiltrating Th cells, MSI+ tumours
[1] = system: T-cells from PMBCs from healthy donors; assay: T-cell proliferation after induction of T-cells with fsp2 (Example 5); assay type: cell-based, human; settings: one round of in vitro stimulation, FIG. 13
Protocol: A similar protocol to that set out in Example 4 was used to test the immunogenicity of fsp6 (SEQ ID NOs: 24) and fsp7 (SEQ ID NO: 123). Fsp2 (SEQ ID NO: 21; 10 μM) was used to induce T-cells from PMBCs isolated from fresh buffy coats from four healthy donors. At day 14 after induction, a T-cell proliferation assay was carried out as in Example 4, using fsp2 (SEQ ID NO: 21), fsp6 (SEQ ID NO: 24) and fsp7 (SEQ ID NO: 123) as test peptides. The T-cell proliferation results after one round of in vitro stimulation are presented as stimulation index (SI) in FIG. 13. […] It is also expected, in view of the results shown in FIGS. 11 and 12, that a peptide having the sequence of fsp6 (SEQ ID NO: […]) but having a C-to-G amino acid substitution corresponding to that in fsp2 is also immunogenic and is useful as a vaccine or treatment against cancer.

[2] = system: T cells (PBMC) from healthy donors; assay: T-cell proliferation (3H-thymidine, SI) after in vitro stimulation of PBMC with cocktail fsp2+fsp4 (Example 4); assay type: cell-based, human; parameters: T cell proliferation (stimulation index, SI): immunogenicity: dose or concentration left out as unconfirmed; settings: for relative immunogenicity: FIGS. 10 and 11, compared with fsp3 and fsp4; for T cell proliferation (stimulation index, SI): immunogenicity: first and second round of in vitro stimulation with cocktail of fsp2 and fsp4, four healthy donors, FIGS. 10-12
Protocol: Fresh buffy coats from four healthy donors were obtained from a blood bank.
Peripheral blood mononuclear cells (PBMC) isolated from fresh buffy coats from four healthy donors were counted and suspended in DC medium to 15*10^6 cells/ml, and subsequently diluted with DC-medium to 4*10^6 cells/ml (Table 6).
Four 24-well plates were used for each donor, with 4*10^6 cells per well (each well has a volume of 1 ml).
Peptide cocktail: Solution of peptides fsp2+fsp4, containing […] of each peptide. 40 μl peptide solution was added to each well.
The plates were incubated in a cell incubator for 14 days (37° C., 5% CO2). IL-2 and IL-7 were added on day 3. The cells were inspected daily.
Test peptides: fsp2+fsp4 (SEQ ID NOs: 21 and 23), fsp1 (SEQ ID NO: 20), fsp2 (SEQ ID NO: 21), fsp3 (SEQ ID NO: 22), fsp4 (SEQ ID NO: 23), fsp5 (SEQ ID NO: 19).
Negative controls: T cells, T cells+APC (without addition of test peptides)
Cells and reagents were added to plate wells (in triplicate) as described in Tables 8 and 9 below. The total volume added to each well was 0.20 ml. • T cells (PBMC): 50 000 cells/well (0.25*10^6 cells/ml) • APC: Irradiated (30 Gy, 8 minutes) autologous feeder cells: 50 000 cells/well • (fspx): 0.2 nmol peptide/well (each peptide), concentration: […] peptide. (fsp was dissolved in DMSO before dilution to correct concentration)
The plates were incubated in a cell incubator for 48 hours (37° C., 5% CO2).
After incubation for 48 hours, 20 μl 3H-tThymidine solution (5 Ci/ml) was added to each well and the plates were incubated for approximately 17 hours (37° C., 5% CO2).
After 17 hours the cells were harvested (Unifilters) and dried on the filters at 45° C. until completely dry. After covering the bottom of the Unifilters with adhesive covers (delivered with the Unifilters) 25 μl micro scintillation liquid was added to each well, the plate was covered with TopSeal and 3H-Thymidine uptake was measured as counts per minute (CPM) using a microplate scintillation counter.
The T cell proliferation results after the first round of in vitro stimulation with the cocktail of fsp2 and fsp4 peptides are presented as stimulation index (SI) in FIG. 10. SI=mean CPM (triplicates) of (T cells+APC+test peptide(s)) divided by mean CPM (triplicates) of (T cells+APC). SI>1 indicates an increase in T-cell proliferation and SI 2 is a clear sign of immunogenicity.
PBMCs harvested after the first in vitro stimulation were re-stimulated in vitro according to the protocol set out above, with 2×10^6 cells per well. T-cell proliferation was tested according to the protocol set out above.

[3] = system: T-cells from PMBCs of healthy donors; assay: T-cell proliferation after stimulation of PMBCs with mixture fsp10, fsp11 and fsp13 (Example 8); assay type: cell-based, human; settings: donor 1, one round of in vitro stimulation (14 days), 10 μM; FIG. 19
Protocol: Using a similar procedure to that used in Examples 4 and 7 above, PMBCs from four healthy donors were stimulated in vitro with a peptide mixture containing equimolar amounts (10 uM) of fsp10 (SEQ ID NO: 28), fsp11 (SEQ ID NO: 29) and fsp13 (SEQ ID NO: 31).
After one round of stimulation (14 days), T-cells were harvested and tested for recognition of the peptide mixture, using single peptide concentrations of 10 μM. T-cell proliferation was measured as counts per minute (CPM) after uptake of ^3H-thymidine in a standard T cell proliferation assay.
The PMBCs from the four healthy donors underwent a second round of in vitro stimulation, and T-cells were again harvested and tested for proliferation against the peptide mixture and the individual peptides. […] While it has, in the past, been considered that a SI value of greater than 2 is the criterion for indicating a T-cell response in a T-cell proliferation assay, this is only the case in subjects who have been vaccinated prior to the T-cell proliferation assay. Where a healthy subject has not been vaccinated before the T-cell proliferation assay (as in the present T-cell proliferation assay), it is not expected that a SI value of 2 or greater will be achieved. Therefore, in non-vaccinated, healthy subjects, an increase in the SI value above 1 is indicative of a T-cell response.

[4] = system: T-cells from PBMC bulk cultures of healthy donors; assay: Peptide-specific T-cell proliferation after stimulation of PBMC with cocktail fsp2+fsp8+fsp9 (Example 7); assay type: cell-based, human; settings: FIGS. 16-18; for T-cell response to the peptide alone: after only one round of stimulation with the peptide mixture; for T-cell response: three donors
Protocol: PBMCs isolated from buffy coats from four healthy donors (obtained from a blood bank) were suspended in complete CellGro DC medium to 15*10^6 cells/ml and diluted to 4*10^6 cells/ml (Table 14).
On day 1, 1 ml of PBMC suspension (4×10^6 cells/ml) from each donor was transferred to wells of 24-well plates (4*10^6 cells per well) and 60 μl of the peptide cocktail (fsp2+fsp8+fsp9) stock solution (166.67 μM/each peptide) was added to each well. The plates were incubated in a cell incubator for 14 days. IL-2 and IL-7 was added on day 3 (0.50 ml DC medium containing 60 U/ml IL-2 and 15 ng/ml IL-7). The cells were inspected daily and DC medium with cytokines (IL-2, IL7) was refreshed according to in house laboratory routines.
The in vitro stimulation of bulk cultures was repeated a further two times (i.e. a total of three stimulations) using PBMCs harvested after the preceding round of in vitro stimulation. Peptide specific T-cell proliferation was tested on day 14, after each round of stimulation, such that T-cell proliferation was tested on days 14, 28 and 42 after the first round of stimulation.
The cells from the bulk cultures were harvested (5 minutes at 300×g centrifugation) and re-suspended in DC medium (5 ml). An aliquot of the 5 ml resuspension was diluted 5 times and the T-cells counted in order to calculate the volume required to provide 5×10^4 cells per well for the proliferation assay. T-cells from each donor were transferred (triplicates) to wells of 96-well plates (5×10^4 cells per well) together with autologous, irradiated (30 Gy for 8 minutes) PBMCs (5×10^4 cells per well) and test peptide(s) (final concentration 10 μM/each peptide). Negative controls were wells without test peptide(s) and positive controls were wells with SEC-3 (0.1 μg/ml) without test peptide(s). The cells (plates) were incubated for 48 hours (37° C./5% CO2). After 48 hours, 20 μL of 3H-Thymidine (3.7×104 Bq) was added to the cells and incubation was continued for 17 hours. The cells were harvested (Unifilters using the Filtermate 196 Harvester) and dried on the filters for approx. 4.5 hours at 45° C. The cells were counted (CPM) by using the standard in-house laboratory protocol (TopCount Packard microplate scintillation beta counter and run programme).
Peptide-specific T-cell proliferation was measured after 14 days of stimulation of PBMC bulk cultures with a peptide cocktail containing fsp2, fsp8 and fsp9 (10 μM each peptide). Proliferation induced by each of the single peptides and the peptide cocktail was tested at a concentration of […] (each peptide).
Peptide-specific T-cell proliferation was measured after 14 days of re-stimulation of PBMC with a peptide cocktail containing fsp2, fsp8 and fsp9 ([…] each peptide). T-cell proliferation induced by each of the single peptides and the peptide cocktail was tested. The single peptides were tested at a concentration of 10 μM. The peptide cocktail was tested using two different amounts of each peptide in the cocktail, namely, a peptide cocktail containing […] each peptide and a peptide cocktail containing 3.33 μM each peptide.
Peptide-specific T-cell proliferation was measured after 14 days of a further re-stimulation of PBMC with a peptide cocktail containing fsp2, fsp8 and fsp9 ([…] each peptide). T-cell proliferation induced by each of the single peptides and the peptide cocktail was tested. The single peptides were tested at a concentration of 10 μM. […]

Substance: SLVRLSSCVPVALMSAMTTSSSQ (listed as Homo sapiens) [p538, prior art peptide of mutTGFβR2]
- patients recognizing the peptide (T cells; patients having spontaneous MSI+ colon cancer): two of three
- patients recognizing the peptide (T cells; patients with HNPCC): all three
- immunogenicity / T-cell responses (T cells): highly immunogenic

Substance: fsp7: peptide of −1a frameshifted TGFβR2; same sequence as fsp2 but truncated at the N-terminus (VRLSSCVPVALMSA; listed as Homo sapiens)
- relative immunogenicity [1]: both fsp6 and fsp2 are much more immunogenic than fsp7

Substance: SPKCIMKEKKSLVRLSSCVPVA (listed as Homo sapiens) [P540, prior art peptide of mutTGFβR2]
- immunogenicity / T-cell responses (T cells): able to induce T-cell responses in some patients; also recorded: immunogenic

Substance: KCIMKEKKSLVRLSSCVPVALMSA (listed as Homo sapiens) [fsp1, peptide of −1a frameshifted TGFβR2]
- relative immunogenicity [2]: more immunogenic than peptides which do not comprise amino acids from the wild-type sequence of TGFβR2
- T cell proliferation (stimulation index, SI): immunogenicity [2]: stimulated T-cells induced from PMBCs

Substance: SSGVPVALMSAMTTSSSQKN (not fully specified) [fsp4, modified peptide of −1a frameshifted TGFβR2]
- T cell proliferation (stimulation index, SI): immunogenicity [2]: immunogenic and can activate T-cells

Substance: PKCIMKEKKKSLVRLSSCV (listed as Homo sapiens) [p541, prior art peptide of mutTGFβR2]
- immunogenicity / T-cell responses (T cells): able to induce T-cell responses in some patients
- immunogenicity / T-cell responses (T cells; listed as p4541): immunogenic

Substance: STCPTYVKGSPSCPLRDLQ (listed as Homo sapiens) [fsp13, peptide of −1a frameshifted SLC22A9]
- T-cell response (proliferation, CPM) [3]: did not stimulate T-cells

Substance: RNRIPAVLRTEGEPLHTPSVGMRET (listed as Homo sapiens) [fsp8, peptide of −1a frameshifted ASTE1]
- T-cell response to the peptide alone [4]: induces a T-cell response
- T-cell response [4]: able to induce a T-cell response

Substance: SLVRLSSCV (listed as Homo sapiens) [p523, prior art peptide of mutTGFβR2]
- immunogenicity (T cells; EP1078000 FIG. 14, four rounds of stimulation of the T-cells): immunogenic
- immunogenicity (T cells; Linnebacher et al., FIG. 1): not immunogenic

Substance: KGIMKEKKSLVRLSSCVPVALMSA (not fully specified) [fsp2, modified peptide of −1a frameshifted TGFβR2]
- relative immunogenicity [2]: more immunogenic than peptides which do not comprise amino acids from the wild-type sequence of TGFβR2
- T cell proliferation (stimulation index, SI): immunogenicity [2]: immunogenic and can activate T-cells
- relative immunogenicity [1]: much more immunogenic than fsp7
- T-cell response [4]: able to induce a T-cell response

Substance: KCIMKEKKSLVRLSSCV (listed as Homo sapiens) [fsp6, peptide of −1a frameshifted TGFβR2]
- T-cell activation (SI) ([1]; day 14): capable of activating T-cells
- relative immunogenicity [1]: less immunogenic than fsp2

Substance: AMTTSSSQKNITPAILTCC (listed as Homo sapiens) [p537, prior art peptide of mutTGFβR2]
- immunogenicity / T-cell responses (T cells): not immunogenic

Substance: KTILKKAGIGMCVKVSSIFFINKQK (listed as Homo sapiens) [fsp9, peptide of −1a frameshifted TAF1β]
- T-cell response to the peptide alone [4]: induces a T-cell response
- T-cell response [4]: able to induce a T-cell response
